What was measured:
Oryza sativa callus = test: Herbicide selection of Oryza sativa callus on redifferentiation selection medium after plasmid bombardment; assay type: cell-based, Oryza sativa japonica (Nipponbare); details: callus introduced with pNC (no resistance) sensitive; redifferentiated individuals counted after about 6 weeks; tested 0.1-4.0 μM
Method: For the experiment, Oryza sativa japonica (Nipponbare) was used. Threshed Oryza sativa seeds were placed in a callus inducing medium, i.e., an N6D medium (Z. Shimatani et al. Nat Biol. 2017), and grown under conditions of 25° C. away from light within an artificial climate incubator to induce a primary callus. To prepare a callus plate for introducing a gene, the primary callus that had been actively growing for several weeks since induction of the callus from seeds was strained using a sterilized mesh. The refined callus was uniformly applied on filter paper placed on a callus inducing medium plate. A gene was introduced to a plate obtained by culturing the callus for 3 to 4 days within the artificial climate incubator. For selection of a transformant, a redifferentiation medium which is an MSRE medium (Z. Shimatani et al. Nat Biol. 2017) added with a suitable herbicide was used and cultured under conditions of 31.5° C. in a light-dark cycle of 12 hours within the artificial climate incubator. […]
After introduction of a gene, the plate was subjected to expansion culture under dark conditions in the artificial climate incubator for 3 to 4 days. […] The number of individuals redifferentiated from the callus clumps was counted as the selected individual count. • <Detection of Transgenesis in a Created Individual>

[1] = test system: Arabidopsis thaliana cultured cells 87T; test: Concerted sensitivity test on herbicide and antibiotic in Arabidopsis thaliana cultured cells; assay type: cell-based; details: for inhibition of the growth rate in combination with spectinomycin: both spectinomycin and herbicide, effect not observed with individual administration of the same concentration
Method: Arabidopsis thaliana cultured cells 87T were used in the experiment. Media comprising different concentrations of a group of herbicides and spectinomycin using a redifferentiation medium (Q. Yu. et al. Plant Physiol. 2017. 175(1). 186-193) as the base were added to each well of a 24-well plate. Specifically, a plate with varying concentrations of the group of herbicides of 0, 0.1, 1, 10, 50, and 100 μM in the direction of the X-axis of the plate and varying concentrations of an antibiotic spectinomycin of 0, 1, 10, and 100 μg/mL in the direction of the y-axis was prepared (FIG. 9A). Pinoxaden, tepraloxydim, tralkoxydim, cyhalofop butyl, and haloxyfop were used as the group of herbicides in each plate. 100 μL of cultured cells was added to each well and cultured under light-dark conditions in an artificial climate incubator. On days 3, 7, and 15 after culture, the growth status was checked to study the concerted sensitivity of a herbicide and antibiotic. • Results

## CCO/N=C(\CC)C1=C(O)CC(c2c(C)cc(C)cc2C)CC1=O (centres unmarked) [tralkoxydim]
Oryza sativa callus
  concentration at which a selection effect of the herbicide can be expected: ≥ 0.5 µM

## CCCCOC(=O)[C@@H](C)Oc1ccc(Oc2ccc(C#N)cc2F)cc1 [cyhalofop butyl]
[1]; herbicide alone, within the range of concentrations studied (0-100 μM)
  inhibition of the growth rate by herbicide alone: not observed

## CC(Oc1ccc(Oc2ncc(C(F)(F)F)cc2Cl)cc1)C(=O)O (centres unmarked) [haloxyfop]
Oryza sativa callus
  concentration at which a selection effect of the herbicide can be expected: ≥ 0.1 µM
[1]
  inhibition of the growth rate in combination with spectinomycin: significant inhibition of the growth rate

## CCc1cc(C)cc(CC)c1-c1c(OC(=O)C(C)(C)C)n2n(c1=O)CCOCC2 [pinoxaden]
[1]
  inhibition of the growth rate in combination with spectinomycin: significant inhibition of the growth rate
[1]; herbicide alone, tested 0-100 μM, growth checked on days 3, 7, 15
  herbicide concentration at which inhibition of growth was observed: ≥ 10 µM

## CN[C@@H]1[C@H](O)[C@H](NC)[C@H]2O[C@@]3(O)C(=O)C[C@@H](C)O[C@H]3O[C@@H]2[C@H]1O [spectinomycin]
[1]; 100 μg/mL spectinomycin
  colour of cultured cells (chloroplast development): Change in color to yellow
[1]; only spectinomycin, concentration range studied (0-100 μg/mL)
  inhibition of the growth rate by spectinomycin alone: not inhibited

Source: patent publication US20230151376A1, “ORGANELLE TRANSFORMANT SCREENING METHOD” (NATIONAL UNIVERSITY CORPORATION KOBE UNIVERSITY, priority 2020, published 2023)
